Laboratory results from US20250093270A1, “Method for Detecting Enzyme Activity and Fluorescent Probe Used in Said Method” (priority 2022, published 2025).

Columns and labels:
acetylcholinesterase = assay: Acetylthiocholine coupled assay in a microdevice with the nitrophenol-type probe; type: biochemical; conditions: probe 1 μM, acetylthiocholine iodide 1 mM, human plasma 1,000-fold dilution, 90 minutes at 37° C.
Experimental: The images were acquired after 90 minutes at 37° C.

[1] = Microdevice compatibility: fluorescence image of a microdevice loaded with probe and reacted with a thiol (leakage to oil, adsorption to well); conditions: for adsorption to the microdevice (inner wall of the reaction vessel / well): reaction vessel formed of CYTOP; for leakage of the probe enclosed in the well of the microdevice to the oil: sealing oil
Experimental: (§1) An enzyme stock solution was diluted with an assay buffer containing a fluorescent probe. Next, 40 μL of a reaction mixture was added to the microdevice (Simoa disk; Quanterx Corporation). Next, 80 μL of FC-70 (Sigma-Aldrich) was introduced into the microdevice to wash off the excess reaction mixture and form W/O droplets. A fluorescence signal of the catalytically produced fluorescent dye was measured under a fluorescence microscope, and the enzyme activity in the chamber was measured.
(§2) Fluorescence images were acquired using a 20× dry objective (Plan Apo 20x), an sCMOS camera (ORCA-FusionC14440, Hamamatsu Photonics K.K.), a white LED lighting unit (X-Cite Xylis, Opto Science, Inc.), and a fluorescence microscope (Ti2, Nikon Corporation) equipped with a motorized stage. In the analysis, measurement was performed using a solution containing sSiR (10 μM) as an internal standard and the focus was adjusted using fluorescence. Images were acquired in tile scan mode at full focus.
FIG. 5(a) illustrates a photograph of a state in which each of three kinds of probes containing 2- and 6-position unsubstituted BODIPY and GSH are supplemented with octanol and water. FIG. 5(b) illustrates a fluorescence image of a microdevice equipped with a probe and reacted with a thiol.
FIG. 5(d) illustrates fluorescence images of a microdevice containing human plasma that was loaded with a fluorescent probe (30 μM) in HEPES-buffer (10 mM, pH 7.4, containing 0.1% CHAPS) and incubated at 37° C. for 1.5 hours.
FIG. 7(a) illustrates a photograph (water-octanol distribution experiment) of a state in which each probe and GSH are supplemented with octanol and water. FIG. 7(b) illustrates a fluorescence image of a microdevice equipped with a probe and reacted with a thiol.
(§3) The image was acquired after incubation at 25° C. for 30 minutes.

cholinesterase (ChE) = conditions: blood diluted to 1/10,000; corresponding to a total enzyme concentration of 1 pM
Experimental: as §1, §2
FIG. 5(c) illustrates a schematic diagram of a coupled assay of an acetylthiocholine system for detection of cholinesterase (ChE) activity.
as §3
The upper view is a fluorescence image of a microdevice equipped with a probe (30 μM), acetylthiocholine (1 mM), and a 1/10,000-fold diluted plasma sample of a healthy human subject. […]

[2] = Comparison of water solubility by difference in elution time of LC-MS (C18); type: physicochemical; conditions: C18, ammonium formate/acetonitrile gradient
Experimental: FIG. 10 illustrates the analysis of a mixture of five compounds by LC-MS and the extracted ion chromatogram of each compound shown with the display color. The results of the diphosphonic acid form, the dicarboxylic acid form, the disulfonic acid form, the monosulfonic acid form, and the monocarboxylic acid form are shown from the left.
The compound was eluted with a linear gradient of A/B=100/0 at 0.5 minutes and 100/0 to 0/100 at 3 minutes detected at 500 nm (eluent A: H2O containing 10 mM ammonium formate; eluent B: acetonitrile 80%, H2O 20% containing 10 mM ammonium formate).

[3] = Water-octanol distribution experiment (probe and GSH supplemented with octanol and water); type: physicochemical; conditions: for distribution to octanol (lipid-soluble solvent) side: water-octanol, with GSH

Molecule | adsorption to the microdevice (inner wall of the reaction vessel / well) [1] | leakage of the probe enclosed in the well of the microdevice to the oil [1] | other results
COc1cc(OC)c(C2=C3C=CC(=O)C=C3[Si](C)(C)c3cc(Oc4ccc(C)cc4[N+](=O)[O-])ccc32)cc1C [2.4-dinitro sTM] |  |  | detection of acetylcholinesterase activity in blood (acetylcholinesterase): detected
2,6-diPO3H2 Nitroolefin BODIPY [compound 17] | no adsorption to the microdevice was observed |  | water solubility ([1]; inferred from behaviour in the microdevice): high water solubility; λ (cholinesterase (ChE)): 0.03; water solubility evaluated by elution time of LC-MS [2]: greatly improved
2,6-diCO2H Nitroolefin BODIPY [compound 9] | the same result as in Example 1 |  | distribution to octanol (lipid-soluble solvent) side [3]: partially observed
2-sulfo-nitroolefin BODIPY [compound 1] | adsorption of the probe to the inner wall of the reaction vessel | suppressed | 
8-(p-nitroolefin)-BODIPY [2- and 6-position unsubstituted BODIPY, reference compound] |  | dissolved in oil | lipid solubility [3]: high lipid solubility
2,6-sulfo-nitroolefin BODIPY [compound 2] | not observed | suppressed | 
2-CO2H Nitroolefin BODIPY [compound 4] | the same result as in Example 1 |  | lipid solubility [3]: particularly highly lipid-soluble; distribution to octanol (lipid-soluble solvent) side [3]: a large amount of the monocarboxylic acid form was distributed to octanol
